According to paper PMC11524583, “Neurons enhance blood–brain barrier function via upregulating claudin-5 and VE-cadherin expression due to glial cell line-derived neurotrophic factor secretion” (eLife, 2024):
Values joined by “and” are separate entries in the source; they are usually repeats but may differ in a detail not shown here. Equal entries are not always repeated. “Also recorded” adds a separate entry of the source. Where two headings read alike, the source gives them in different places. Marks after values point to notes of the source that are not given here.

Key:
claudin-5 = assay: Western blot of claudin-5 expression in hCMEC/D3 cells; format: cell-based, Homo sapiens; conditions: for Claudin-5/β-actin Relative Expression, Mean / Claudin-5/β-actin Relative Expression: Figure 2G; for Claudin-5/β-actin Relative Expression, Mean: Con = 1.000; for Claudin-5/β-actin Relative Expression: relative to Con, single replicates
Protocol: (§1) Whole-cell and tissue lysates, nucleoprotein, and cytoplasmic protein were prepared using RIPA Lysis Buffer (Beyotime, Shanghai, China) as the described method ([Wu et al., 2021]). Proteins were separated through sodium dodecyl sulfate–polyacrylamide gel electrophoresis and transferred onto nitrocellulose or polyvinylidene difluoride membranes. The membranes were blocked with 5% skim milk and incubated with corresponding primary antibodies at 4°C overnight. After being washed with Tris-buffered saline Tween buffer, the membranes were incubated with secondary antibodies (Cell Signaling Technology, MA, USA) at 1:3000 dilution: Anti-mouse IgG, HRP-linked Antibody (#7076), Anti-rabbit IgG, HRP-linked Antibody (#7074). Protein levels were visualized using a highly sensitive ECL western blotting substrate and a gel imaging system (Tanon Science & Technology, Shanghai, China).
(§2) CM of U251 cells (U-CM), SH-SY5Y cells (S-CM), or co-culture of U251 and SH-SY5Y cells (US-CM) was prepared. U251 cells were seeded at the top of the insert membrane and suspended on 6-well plates seeded with differentiated SH-SY5Y cells to co-culture U251 cells with SH-SY5Y cells. The medium was collected every 24 hr. The CMs were subsequently used for hCMEC/D3 cell culture after filtrating with 0.2 μm filters for 144 hr. The levels of GDNF, bFGF, IGF-1, and TGF-β in CMs were measured using corresponding ELISA kits according to the manufacturers’ instructions.
(§3) Exogenous and endogenous GDNF in the medium was neutralized with anti-GDNF antibody (#AF-212-NA, R&D system, Minneapolis, MN, USA). 0.25, 0.5, and 1.0 μg/ml anti-GDNF antibody was added into the US-CM or medium containing 200 pg/ml GDNF, and then the medium was preincubated at 4°C for 1 hr. The hCMEC/D3 cells were incubated with 200 pg/ml GDNF or US-CM containing anti-GDNF antibody or not for 6 days, and then cell lysate was collected for western blot. The medium was replaced every 24 hr.
(§4) Here, hCMEC/D3 cells were plated in the plates or culture dishes at 6 × 10^4 cells/cm^2 and transfected with 10 nM of negative control or human FOXO1, ETS1, and CDH5 siRNA (Tsingke Biotechnology, Beijing, China) for 12 hr using Lipofectamine 3000 (Invitrogen, Carlsbad, CA, USA) reagent according to the manufacturer’s instructions. Cells were then incubated with a medium containing GDNF for 72 hr.
The plasmids encoding FOXO1 (EX-Z7404-M02) were constructed by GeneCopoeia (Rockville, MD, USA). The hCMEC/D3 cells were plated in plates or dishes at 6 × 10^4 cells/cm^2. They were subsequently transfected with 1 µg of negative control or plasmids encoding FOXO1 6 hr using Lipofectamine 3000 reagent according to the manufacturer’s instructions. Transfected cells were then incubated with the medium containing GDNF for 72 hr.

VE-cadherin = assay: Western blot of VE-cadherin expression in hCMEC/D3 cells; format: cell-based, Homo sapiens; conditions: for VE-cadherin/β-actin Relative Expression, Mean / VE-cadherin/β-actin Relative Expression: Figure 2G; for VE-cadherin/β-actin Relative Expression, Mean: Con = 1.000; for VE-cadherin/β-actin Relative Expression: relative to Con, single replicates
Protocol: as §1, §2, §3, §4

[1] = in situ brain perfusion in rodents; published permeability multiplied by VSA 150 cm^2/g; ref Summerfield et al., 2007; cited from earlier work
[2] = tested on: hCMEC/D3 mono-culture BBB model; assay: TEER of hCMEC/D3 mono-culture BBB model; format: cell-based, Homo sapiens; conditions: hCMEC/D3 mono-culture, 200 pg/ml GDNF, day 6; 3 μM SPP-86 or 5 μM PP2
[3] = tested on: triple co-culture BBB model (hCMEC/D3, U251 and SH-SY5Y cells); assay: TEER of triple co-culture BBB model; format: cell-based, Homo sapiens; conditions: for TEER: Figure 2Q, group Triple+SPP, individual replicates, listed as SPP
Protocol: The establishment process of the triple co-culture model is illustrated in Figure 9. SH-SY5Y cells were seeded at a density of 4.5 × 10^4 cells/cm^2 in plates and differentiated with 10 μM retinoic acid (Sigma-Aldrich, St. Louis, MO, USA) for 72 hr. The differentiated SH-SY5Y cells were cultured in the fresh DMEM/F12 medium containing 10% FBS. U251 cells were seeded at 2 × 10^4 cells/cm^2 on the bottom of Transwell inserts (PET, 0.4 µm pore size, SPL Life Sciences, Pocheon, Korea) coated with rat-tail collagen (Corning Inc, Corning, NY, USA). Next, the inserts were suspended in plate wells containing the culture medium after 5 hr of incubation. After 24 hr of incubation, hCMEC/D3 cells were seeded on the apical side of the inserts at 3 × 10^4 cells/cm^2 and cultured for another 48 hr. Then, the inserts seeded with U251 and hCMEC/D3 cells were suspended in plates seeded with differentiated SH-SY5Y cells and co-cultured for another 6 days. The culture medium was replaced every 24 hr. TEER was periodically measured using a Millicell-ERS (MERS00002) instrument (Millipore, Billerica MA, USA) to monitor cell confluence and development of TJs.

[4] = tested on: triple co-culture BBB model (hCMEC/D3, U251 and SH-SY5Y cells); assay: In vitro BBB permeability study (Papp), triple co-culture BBB model
[5] = tested on: hCMEC/D3 mono-culture BBB model; assay: In vitro BBB permeability study (Papp), hCMEC/D3 mono-culture BBB model
[6] = unbound fraction in brain, cited from earlier work
[7] = In vitro BBB permeability study (Papp), triple co-culture BBB model; conditions: human
[8] = In vitro BBB permeability study (Papp), hCMEC/D3 mono-culture BBB model; conditions: human
[9] = tested on: hCMEC/D3 mono-culture BBB model; conditions: human
in vitro [10] = conditions: human, Papp, Mono
in vitro [11] = conditions: human, Papp, Triple
[12] = hCMEC/D3 cells, 200 pg/ml GDNF, 3 μM SPP-86, 5 μM PP2, 3 μM LY294002, 2 μM U0126, 5 μM SP600125, 2 μM SB203580, anti-GDNF antibody 0.25, 0.5, 1.0 μg/ml
[13] = hCMEC/D3 cells, US-CM, 3 μM SPP-86, 5 μM PP2, 3 μM LY294002, 2 μM U0126, anti-GDNF antibody 0.25, 0.5, 1.0 μg/ml

## TGF-β
claudin-5; 0.5 ng
  Claudin-5/β-actin Relative Expression, Mean: 0.967
  Claudin-5/β-actin Relative Expression: 0.910 and 1.017 and 1.003 and 0.937
claudin-5; 2 ng
  Claudin-5/β-actin Relative Expression, Mean: 0.982
  Claudin-5/β-actin Relative Expression: 0.870 and 1.019 and 1.090 and 0.947
claudin-5; 5 ng
  Claudin-5/β-actin Relative Expression, Mean: 0.716
  Claudin-5/β-actin Relative Expression: 0.653 and 0.618 and 0.959 and 0.634
claudin-5; hCMEC/D3 cells, high level (5 ng/ml) of TGF-β
  claudin-5 expression: slightly downregulated
VE-cadherin; 0.5 ng
  VE-cadherin/β-actin Relative Expression, Mean: 1.041
  VE-cadherin/β-actin Relative Expression: 1.060 and 0.953 and 1.005 and 1.147
VE-cadherin; 2 ng
  VE-cadherin/β-actin Relative Expression, Mean: 1.010
  VE-cadherin/β-actin Relative Expression: 0.849 and 1.087 and 1.125 and 0.979
VE-cadherin; 5 ng
  VE-cadherin/β-actin Relative Expression, Mean: 0.834
  VE-cadherin/β-actin Relative Expression: 0.847 and 0.832 and 0.952 and 0.705

## Cc1nc2n(c(=O)c1CCN1CCC(c3noc4cc(F)ccc34)CC1)CCCC2 [Risperidone]
[1]
  PSObs: 849.60^† μl/min/g

## CC(C)n1nc(C#Cc2ccccc2)c2c(N)ncnc21 [SPP-86]
[2]
  GDNF-increased TEER values, effect of inhibitor: almost abolished
[3]; Day3
  TEER: 56.76 Ω·cm2 and 57.75 Ω·cm2 and 55.77 Ω·cm2 and 59.4 Ω·cm2
[3]; Day4
  TEER: 63.03 Ω·cm2 and 62.37 Ω·cm2 and 61.38 Ω·cm2 and 59.4 Ω·cm2
[3]; Day5
  TEER: 71.94 Ω·cm2 and 75.24 Ω·cm2 and 74.25 Ω·cm2 and 72.27 Ω·cm2
[3]; Day6
  TEER: 75.24 Ω·cm2 and 76.56 Ω·cm2 and 75.9 Ω·cm2 and 74.25 Ω·cm2
[3]; day 6, 3 μM SPP-86 or 5 μM PP2
  increased TEER values in the triple co-culture BBB model, effect of inhibitor: completely reversed
claudin-5; [12]
  GDNF-induced claudin-5 expression: markedly attenuated; also recorded: significantly suppressed
claudin-5; [13]
  US-CM-induced claudin-5 expression: markedly attenuated; also recorded: markedly reversed
VE-cadherin; [12]
  GDNF-induced VE-cadherin expression: markedly attenuated; also recorded: significantly suppressed
VE-cadherin; [13]
  US-CM-induced VE-cadherin expression: markedly attenuated; also recorded: markedly reversed
[4]; 3 μM SPP-86 or 5 μM PP2
  decreased permeability of fluorescein and FITC-Dex in the triple co-culture BBB model, effect of inhibitor: completely reversed
[5]; hCMEC/D3 mono-culture, 200 pg/ml GDNF, 3 μM SPP-86 or 5 μM PP2
  GDNF-decreased permeability of fluorescein and FITC-Dex, effect of inhibitor: almost abolished

## Cc1cc2c(s1)Nc1ccccc1N=C2N1CCN(C)CC1 [Olanzapine]
[6]; ref Summerfield et al., 2007
  fu, brain: 0.034^†
[1]
  PSObs: 2279.70^† μl/min/g

## COc1ccc(C(CN(C)C)C2(O)CCCCC2)cc1 (stereo not drawn) [Venlafaxine]
[6]; ref Esaki et al., 2019
  fu, brain: 0.205^*
[7]; Papp (individual replicate), Triple co-culture BBB model, single replicate values (4 per drug)
  Papp A→B at 30 min: 7.48 ×10⁻⁶ cm/s
[7]; Papp, Triple, apical to basolateral, 30 min, 37°C, day 6, mean ± SEM, four biological replicates
  Papp A→B at 30 min: 8.25 ± 0.36 ×10⁻⁶ cm/s
[4]; Triple co-culture BBB model, PS worked out from mean Papp
  PS: 362.02 µL/min/g
[4]; read-out: Papp (individual replicate), Triple co-culture BBB model, single replicate values (4 per drug)
  Papp A→B: 8.5 ×10⁻⁶ cm/s and 9.29 ×10⁻⁶ cm/s and 7.72 ×10⁻⁶ cm/s
[8]; Papp (individual replicate), Mono-culture BBB Model, single replicate values (4 per drug)
  Papp A→B at 30 min: 10.3 ×10⁻⁶ cm/s
[8]; Papp, Mono, apical to basolateral, 30 min, 37°C, day 6, mean ± SEM, four biological replicates
  Papp A→B at 30 min: 9.58 ± 0.28 ×10⁻⁶ cm/s
[5]; Mono-culture BBB Model, PS worked out from mean Papp
  PS: 420.60 µL/min/g
[5]; PSPre = Papp×60×VSA×1000/fu,brain, VSA 150 cm^2/g, from Papp, Mono
  PSPre, Mono: 420.60 µL/min/g
[5]; read-out: Papp (individual replicate), Mono-culture BBB Model, single replicate values (4 per drug)
  Papp A→B: 8.74 ×10⁻⁶ cm/s and 9.52 ×10⁻⁶ cm/s and 9.75 ×10⁻⁶ cm/s

## CC(NC(C)(C)C)C(=O)c1cccc(Cl)c1 (stereo not drawn) [Bupropion]
[9]
  PSPre, Mono: 1139.58 µL/min/g
In vitro [10]
  Papp A→B at 30 min: 15.2 ± 0.2 ×10⁻⁶ cm/s
In vitro [11]
  Papp A→B at 30 min: 11.3 ± 0.44 ×10⁻⁶ cm/s
[6]; ref Bhattacharya et al., 2021
  fu, brain: 0.12^§
